According to patent publication US10519111B2, “UV absorbing compounds, compositions comprising same and uses thereof” (CORAL SUNSCREEN PTY LTD, priority 2013, dated 2019):

How the values were obtained:
[1] = UV absorption properties (λmax, molar extinction coefficient ε, efficiency E 1%, 1 cm); type: physicochemical
[2] = Critical wavelength (λcrit), approximate in-house measurement; type: physicochemical
Source text: As the precise test for critical wavelength was unable to be replicated exactly by the inventors due to the need for specialist equipment and a specific calibration of the spectrophotometer, these values are only approximate to a degree. […] This represents a highly useful result and so, compounds based around this benzoyl substitution pattern shown, are especially preferred.

[3] = Table 7, values in order of the λmax values
[4] = Table 13B, miscellaneous compounds
[5] = Table 13B, values in order of the λmax values
[6] = Table 13B, values in order of the λmax values, in M-1 cm-1
[7] = Table 3, compounds from isocyanates or isothiocyanates
[8] = Table 10, bis and mono enamine compounds
[9] = Table 5, acylation of N-t-Bu enamine
[10] = Table 5, values in order of the λmax values
[11] = Table 5, values in order of the λmax values, in M-1 cm-1

CC(C)CN1C=C(C(=O)/C=C/c2ccc(C(F)(F)F)cc2)C(C)(C)CC1 [drawing 113]
λmax ([1]; Table 7, unsaturated compounds): 369 nm
E (1%, 1 cm) [1, 3]: 463
ε [1, 3]: 17000 M⁻¹ cm⁻¹
λcrit ([2]; Table 7): 388 nm

CC1(C)CCN(c2ccc(C(C)(C)C)cc2)C=C1C(=O)Nc1ccc(NC(=O)C2=CN(c3ccc(C(C)(C)C)cc3)CCC2(C)C)cc1 [drawing 68]
Ε (1%, 1 cm) ([1]; Table 4): 1054
λmax ([1]; Table 4, N-aryl enamines with isocyanates): 331 nm
ε ([1]; Table 4, in M-1 cm-1): 68095
λcrit ([2]; Table 4): 354 nm

CCOC(=O)c1cc(/C=C/C(=O)C2=CN(C(C)(C)C)CCC2(C)C)c(C(=O)OCC)cc1/C=C/C(=O)C1=CN(C(C)(C)C)CCC1(C)C
λmax [1, 4]: 383 nm
E (1%, 1 cm) [1, 5]: 355
ε [1, 6]: 23457
λcrit ([2]; Table 13B): 388 nm

Cc1ccc(NC(=O)C2=CN(C(C)(C)C)CCC2(C)C)cc1NC(=O)C1=CN(C(C)(C)C)CCC1(C)C [drawing 62]
Ε (1%, 1 cm) ([1]; Table 3): 1174
λmax [1, 7]: 308 nm
ε ([1]; Table 3, in M-1 cm-1): 59763
λcrit ([2]; Table 3): 329 nm

CC1(C)C=CN(c2ccncc2)C=C1
E (1%, 1 cm) ([1]; Table 10): 977
λmax [1, 8]: 305 nm
ε ([1]; Table 10, in M-1 cm-1): 18164
λcrit ([2]; Table 10): 327 nm

CC1(C)CCN(C(C)(C)C)C=C1C(=O)/C=C/c1ccc(/C=C/C(=O)C2=CN(C(C)(C)C)CCC2(C)C)c([N+](=O)[O-])c1
λmax [1, 4]: 391 nm
E (1%, 1 cm) [1, 5]: 369
ε [1, 6]: 24359
λcrit ([2]; Table 13B): 388 nm

Cc1cc(N2C=CC(C)(C)C=C2)n(C)n1 [drawing 152]
E (1%, 1 cm) ([1]; Table 10): 560
λmax [1, 8]: 253 nm
ε ([1]; Table 10, in M-1 cm-1): 11371
λcrit ([2]; Table 10): 350 nm

CC1(C)CCN(C(C)(C)C)C=C1C(=O)N(CCCCN(C(=O)C1=CN(C(C)(C)C)CCC1(C)C)c1ccccc1)c1ccccc1
λmax [1, 4]: 312 nm
E (1%, 1 cm) [1, 5]: 354
ε [1, 6]: 22166
λcrit ([2]; Table 13B): 357 nm

CCC(=O)C1=CN(c2ccc(N3C=C(C(=O)CC)C(C)(C)CC3)cc2)CCC1(C)C
λmax [1, 4]: 357 nm
E (1%, 1 cm) [1, 5]: 1290
ε [1, 6]: 52638
λcrit ([2]; Table 13B): 377 nm

CCC(=O)C1=CN(c2ccccc2)CCC1(C)C [drawing 122]
E (1%, 1 cm) ([1]; Table 8a): 947
ε ([1]; Table 8a): 23000 M⁻¹ cm⁻¹
λmax ([1]; Table 8a, N-phenyl compounds): 321 nm
λcrit ([2]; Table 8a): 349 nm

CC(C)=CCCC(C)CC(=O)C1=CN(c2ccc(N3C=C(C(=O)CC(C)CCC=C(C)C)C(C)(C)CC3)cc2)CCC1(C)C (stereo not drawn) [drawing 212]
λmax [1, 4]: 359 nm
E (1%, 1 cm) [1, 5]: 690
ε [1, 6]: 41400
λcrit ([2]; Table 13B): 379 nm

COc1ccc(N2C=C(C(=O)c3ccc(F)cc3)C(C)(C)CC2)cc1 [drawing 129]
E (1%, 1 cm) ([1]; Table 8a): 571
ε ([1]; Table 8a): 19350 M⁻¹ cm⁻¹
λmax ([1]; Table 8a, N-phenyl compounds): 341 nm
λcrit ([2]; Table 8a): 369 nm

CCC(=O)C1=CN(c2ccc(-c3ccc(N4C=C(C(=O)CC)C(C)(C)CC4)c(C)c3)cc2C)CCC1(C)C
λmax [1, 4]: 328 nm
E (1%, 1 cm) [1, 5]: 1234
ε [1, 6]: 63191
λcrit ([2]; Table 13B): 349 nm

C=C/C=C/C(=O)C1=CN(CC(C)C)CCC1(C)C [drawing 117]
λmax ([1]; Table 7, unsaturated compounds): 352 nm
E (1%, 1 cm) [1, 3]: 730
ε [1, 3]: 18000 M⁻¹ cm⁻¹
λcrit ([2]; Table 7): 381 nm

Cc1cc(-c2ccc(N3C=C(C(=O)C(F)(F)F)C(C)(C)CC3)c(C)c2)ccc1N1C=CC(C)(C)C(C(=O)C(F)(F)F)=C1
λmax [1, 4]: 326 nm
E (1%, 1 cm) [1, 5]: 859
ε [1, 6]: 50670
λcrit ([2]; Table 13B): 378 nm

CC1(C)CCN(C(C)(C)C)C=C1C(=O)/C=C/c1ccccc1 [drawing 93]
E (1%, 1 cm) ([1]; Table 6B): 781
λmax ([1]; Table 6B, N-tert-butyl compounds): 360 nm
ε ([1]; Table 6B, in M-1 cm-1): 23198
λcrit ([2]; Table 6B): 385 nm

CCC(=O)C1=CN(c2ccc(OC)cc2)CCC1(C)C [drawing 127]
E (1%, 1 cm) ([1]; Table 8a): 862
ε ([1]; Table 8a): 23500 M⁻¹ cm⁻¹
λmax ([1]; Table 8a, N-phenyl compounds): 328 nm
λcrit ([2]; Table 8a): 350 nm

Cc1ccc(N2C=C(C(=O)CCCCCCCCC(=O)C3=CN(c4ccc(C)cc4)CCC3(C)C)C(C)(C)CC2)cc1 [drawing 131]
E (1%, 1 cm) ([1]; Table 8b): 928
λmax ([1]; Table 8b, N-phenyl compounds): 328 nm
ε ([1]; Table 8b, in M-1 cm-1): 52737
λcrit ([2]; Table 8b): 349 nm

CC1(C)CCN(C(C)(C)C)C=C1C(=O)CCCCCCCCC(=O)C1=CN(C(C)(C)C)CCC1(C)C [drawing 72]
λmax [1, 9]: 307 nm
Ε (1%, 1 cm) [1, 10]: 1095
ε [1, 11]: 54797
λcrit ([2]; Table 5): 322 nm

CC1(C)CCN(c2ccc(C(C)(C)C)cc2)C=C1C(OC(=O)C1c2ccccc2-c2ccccc21)=C1c2ccccc2-c2ccccc21 [drawing 159]
E (1%, 1 cm) ([1]; Table 11): 105
λmax ([1]; Table 11, compounds from mixed anhydrides): 407 nm
ε ([1]; Table 11, in M-1 cm-1): 6635
λcrit ([2]; Table 11): 387 nm

CCC(=O)C1=CN(c2ccc(C)cc2)CCC1(C)C [drawing 135]
E (1%, 1 cm) ([1]; Table 8b): 1347
λmax ([1]; Table 8b, N-phenyl compounds): 327 nm
ε ([1]; Table 8b, in M-1 cm-1): 34608
λcrit ([2]; Table 8b): 348 nm

COC(=O)c1cc(Br)ccc1/C=C/C(=O)C1=CN(C(C)(C)C)CCC1(C)C
λmax [1, 4]: 362 nm
E (1%, 1 cm) [1, 5]: 411
ε [1, 6]: 13489
λcrit ([2]; Table 13B): 386 nm

CCC(=O)C1=CN(c2ccc(Oc3ccc(N4C=C(C(=O)CC)C(C)(C)CC4)cc3)cc2)CCC1(C)C
λmax [1, 4]: 334 nm
E (1%, 1 cm) [1, 5]: 1121
ε [1, 6]: 58063
λcrit ([2]; Table 13B): 353 nm

CC1(C)CCN(c2ccc(N3C=C(C(=O)CC4CCCCC4)C(C)(C)CC3)cc2)C=C1C(=O)CC1CCCCC1
λmax [1, 4]: 360 nm
E (1%, 1 cm) [1, 5]: 1030
ε [1, 6]: 56032
λcrit ([2]; Table 13B): 379 nm

CN(C)c1ccc(N2C=C(C(=O)C(F)(F)F)C(C)(C)CC2)cc1 [drawing 141]
E (1%, 1 cm) ([1]; Table 9): 1004
λmax ([1]; Table 9, C3-trifluoroacetylated N-aryl enamines): 354 nm
ε ([1]; Table 9, in M-1 cm-1): 32744
λcrit ([2]; Table 9): 385 nm

CCC(=O)C1=CN(CC(C)C)C=CC1(C)C [drawing 170]
E (1%, 1 cm) ([1]; Table 13A): 362
ε ([1]; Table 13A): 8800 M⁻¹ cm⁻¹
λmax ([1]; Table 13A, miscellaneous compounds): 366 nm
λcrit ([2]; Table 13A): 386 nm

CC1(C)CCN(C(C)(C)C)C=C1C(=O)c1ccncc1 [drawing 75]
λmax [1, 9]: 316 nm
Ε (1%, 1 cm) [1, 10]: 866
ε [1, 11]: 23556
λcrit ([2]; Table 5): 354 nm

CC1(C)CCN(C(C)(C)C)C=C1C(=O)COc1ccccc1 [drawing 74]
λmax [1, 9]: 313 nm
Ε (1%, 1 cm) [1, 10]: 869
ε [1, 11]: 26154
λcrit ([2]; Table 5): 329 nm

CN(C(=O)C1=CN(C(C)(C)C)CCC1(C)C)c1ccccc1 [drawing 58]
Ε (1%, 1 cm) ([1]; Table 3): 506
λmax [1, 7]: 312 nm
ε ([1]; Table 3, in M-1 cm-1): 15174
λcrit ([2]; Table 3): 337 nm

CCC(=O)C1=CN(c2ccc(C(C)(C)C)cc2)CCC1(C)C [drawing 136]
E (1%, 1 cm) ([1]; Table 8b): 1069
λmax ([1]; Table 8b, N-phenyl compounds): 329 nm
ε ([1]; Table 8b, in M-1 cm-1): 31955
λcrit ([2]; Table 8b): 348 nm

CCCCCCC(=O)C1=CN(c2ccc(N3C=C(C(=O)CCCCCC)C(C)(C)CC3)cc2)CCC1(C)C
λmax [1, 4]: 359 nm
λcrit ([2]; Table 13B): 378 nm

CC(C)(C)CC(C)(C)N1C=C(C(=O)/C=C/c2ccc(/C=C/C(=O)Cl)cc2)C(C)(C)CC1
λmax [1, 4]: 374 nm
E (1%, 1 cm) [1, 5]: 434
ε [1, 6]: 19194
λcrit ([2]; Table 13B): 385 nm

CCCCNC(=O)C1=CN(C(C)(C)C)CCC1(C)C [drawing 61]
Ε (1%, 1 cm) ([1]; Table 3): 799
λmax [1, 7]: 288 nm
ε ([1]; Table 3, in M-1 cm-1): 22531
λcrit ([2]; Table 3): 312 nm

COc1ccc(N2C=C(C(=O)C3CCCC3=O)C(C)(C)CC2)cc1 (stereo not drawn) [drawing 130]
E (1%, 1 cm) ([1]; Table 8b): 938
λmax ([1]; Table 8b, N-phenyl compounds): 332 nm
ε ([1]; Table 8b, in M-1 cm-1): 30675
λcrit ([2]; Table 8b): 358 nm

Cc1cc(/C=C/C(=O)C2=CN(C(C)(C)C)CCC2(C)C)c(C)cc1/C=C/C(=O)C1=CN(C(C)(C)C)CCC1(C)C
λmax [1, 4]: 385 nm
E (1%, 1 cm) [1, 5]: 591
ε [1, 6]: 32159
λcrit ([2]; Table 13B): 390 nm
